In PubChem BioAssay AID720512 (Broad Institute, 2013):
Activity calls are given as the source filed them. The rule behind the calls is not given here.

Target: Toxin B (TcdB) glycohydrolase, Clostridioides difficile 630
Test: TcdB glycohydrolase inhibitors, dose response, biochemical, cherry-pick, plate reader (AID 720512)
Details: recombinant TcdB glycohydrolase activity; for activity change, negative = inhibition: at 19.5 µM (top of the series)

SMILES | activity change, negative = inhibition | AC50
CN(c1ccc(O)cc1)c1nc(-c2cccnc2)cs1 | inactive | –
COc1cc(O)ccc1C(=O)CCc1ccc(O)cc1 | inactive | –
COc1ccc(C(=O)Nc2ccc3c(c2)C(=O)N(C)[C@@H]2CC[C@H](CC(=O)NCC4CC4)O[C@H]2CO3)cc1 | inactive | –
COc1ccc(CNC(=O)c2cc3c(s2)CN(Cc2ccccc2)C3)cc1 | inactive | –
COc1ccccc1-n1c(SCC(=O)O)nc2c(sc(=S)n2-c2ccc(C)c(C)c2)c1=O | inactive | –
COCC#Cc1ccc2c(c1)O[C@H](CN(C)C(=O)CC1CC1)[C@@H](C)CN([C@H](C)CO)S2(=O)=O | inactive | –
CN1C(=O)CSc2ccc(NC(=O)N3CCc4ccccc43)cc21 | inactive | –
NS(=O)(=O)c1ccc(CCNC(=O)c2ccc(CS(=O)(=O)c3ccc(Br)cc3)o2)cc1 | inactive | –
COc1ccc(/C=C2\CCC(C3CCCC3)C2=O)cc1 (stereo not drawn) | inactive | –
Cc1cc(C)c(S(=O)(=O)N2CCCCC2C(=O)O)c(C)c1 (stereo not drawn) | inactive | –
O=C1/C(=C/c2cccnc2)SC(=NCc2ccccc2)N1Cc1ccccc1 | inactive | –
Cc1cc2c(cc1S(=O)(=O)N(C)c1ccccc1)NC(=O)CO2 | inactive | –
CCc1ccccc1NC(=S)N(Cc1ccc(C(=O)O)cc1)Cc1ccc(OC)c(OC)c1 | inactive | –
Oc1ccc(CCc2ccccn2)cc1 | – | > 39 µM (inactive)
COC(=O)c1ccc(NC(=S)Nc2ccc(O)cc2)cc1 | inactive | –
C[N+]1(CCCCSc2ccc(O)cc2)CCCCC1 | – | > 39 µM (inactive)
CCc1ccc(NC(=O)C2=CC(c3ccc(OC)cc3)=NS(=O)(=O)N2C)cc1 | inactive | –
Nc1nc(Cl)cc(NCCc2ccc(O)cc2)n1 | inactive | –
CNC(=O)C1CCN(S(=O)(=O)c2c(C)noc2/C=C/c2ccc(C)cc2)CC1 | inactive | –
CCNC(=O)[C@H]1[C@H](CO)[C@H]2Cn3c(ccc(-c4ccccc4)c3=O)[C@H]2N1CC | inactive | –
COc1ccc(C(=O)Nc2c(-c3cccs3)c(=O)c3ccccc3n2C)cc1 | inactive | –
Cc1cc(C(=O)N2CCN(Cc3ccccc3)CC2)ccc1[N+](=O)[O-] | inactive | –
CCOC(=O)[C@H]1[C@H]2COc3ccc(OC)cc3[C@@H]2N2C(=O)CN(Cc3ccc(Cl)cc3)C(=O)[C@@]12C | inactive | –
Cc1ccc(-c2cc(C(=O)NNC(=O)c3csc(N4CCOCC4)n3)c3ccccc3n2)cc1 | inactive | –
Cc1ccc(S(=O)(=O)N2CC(CBr)=CCC2c2ccccc2)cc1 (stereo not drawn) | – | > 39 µM (inactive)
Cc1ccc(C)c(CN2C(=O)COc3ccc(C(=O)c4ccccc4C(=O)O)cc32)c1 | inactive | –
Cc1csc(N=Nc2ccc(N(C)C)cc2)[n+]1[O-] | inactive | –

SMILES | activity change, negative = inhibition | AC50
Cc1ccc(NCCN(C)C)c2c(=O)c3cc(O)ccc3sc12 | inactive | –
Cc1ccc(S(=O)(=O)Oc2cccc(/C=N/n3cnnc3)c2)cc1 | inactive | –
COc1ccc(C2=NS(=O)(=O)N(C)C(C(=O)N(C)Cc3ccccc3)=C2)cc1OC | inactive | –
C/C(=N\NC(=O)c1ccccc1O)c1cccc(NC(=O)c2ccccc2)c1 | inactive | –
O=C(CSc1ccccc1)Nc1cc(S(=O)(=O)N2CCOCC2)ccc1N1CCOCC1 | inactive | –
COc1ccc(-c2ccc3c(c2)[C@H]2[C@H](CCN2C(=O)Cc2cccnc2)[C@@H](CO)N3C)cc1 | inactive | –
O=c1c2oc3nc4c(cc3c2ncn1CCCc1ccccc1)CCCC4 | inactive | –
CCOC(=O)Cn1c(C(F)(F)F)nc2nc(Cl)c(Cl)nc21 | inactive | –
N=C(N)c1ccc(N=Nc2c(O)ccc3c2[nH]c2ccccc23)cc1 | – | > 39 µM (inactive)
CC(=O)c1ccc(Nc2ccc(-c3ccccc3F)nn2)cc1 | inactive | –
Cc1[nH]c(-c2ccc(F)cc2)cc1C(=O)N1CCN(c2ccccc2)CC1 | inactive | –
CC1=C(C(=O)OCC2CCCO2)C(c2coc3ccccc3c2=O)C2=C(CCCC2=O)N1 (stereo not drawn) | inactive | –
COc1ccc(C2=NS(=O)(=O)N(C)C(C(=O)N3CCOCC3)=C2)cc1 | inactive | –
COc1ccc(C(=O)/C=C/c2ccc(O)cc2)c2c1CC(O)C(C)(C)O2 (stereo not drawn) | – | > 39 µM (inactive)
COc1cc(/C=N/Nc2ccccn2)ccc1O | inactive | –
COc1ccccc1CNC(=O)CNC(=O)N1CC(=O)Nc2ccccc21 | inactive | –
O=C(NCc1cccnc1)c1cc(C2CCCCN2S(=O)(=O)c2cccc3cccnc23)on1 (stereo not drawn) | inactive | –
CCCC(=O)Nc1sc2c(c1C(=O)Nc1ccccn1)CCCC2 | inactive | –
COc1ccc(CCNC(=O)CCCn2nc(C)n3ccnc3c2=O)cc1OC | inactive | –
CC(C)NC(=O)N1CC[C@@H]2[C@@H](CO)N(C)c3ccc(-c4ccc(F)cc4)cc3[C@@H]21 | – | > 42 µM (inactive)
CC(=O)Nc1ccc(Oc2nc(-c3ccccn3)nc3ccccc23)cc1 | inactive | –
O=C(N/C(=C\c1ccc(O)cc1)C(=O)N1CCCCC1)c1ccccc1 | inactive | –
Cc1ccn2c(Cc3ccccc3)c(-c3ccc(F)cc3)nc2c1 | inactive | –
CC(=O)NC(Cc1ccccc1)C(=O)Oc1ccc2ccccc2c1 (stereo not drawn) | inactive | –
CCCNC(=O)C1CCN(S(=O)(=O)c2c(C)noc2/C=C\c2ccc(OC)cc2)CC1 | inactive | –
O=C(Nc1ccc(O)cc1)/C(=C\c1ccncc1)NC(=O)c1ccccc1 | inactive | –
